# US10472677B2, “Translational dysfunction based therapeutics” (Translational Therapeutics, Inc., priority 2005, dated 2019)
# What was measured:
# [1] = test system: FaDu tumors in nude mice; format: in vivo
# Protocol: Female 5- to 7-week-old athymic NCr-nu/nu mice were obtained from Taconic Farms. Human FaDu cells, derived from a hypopharyngeal squamous cell carcinoma, were obtained from the American Type Culture Collection. Mice were inoculated s.c. into the right flank with 0.5×10^6 cells in 50 μl PBS, and were randomly segregated into two groups of 10 mice each. After 1 week of engraftment, treatment was administered orally each day at a dose of 40 μg/kg Ribavirin. Tumor size was ascertained by measuring tumor diameter, and statistical significance was ascertained by using a paired t test.
# [2] = test system: eIF4E nuclear bodies in NIH 3T3 cells; assay: subcellular eIF4E organization, confocal immunofluorescence and fractionation/Western; format: cell-based, mouse
# Protocol: NIH 3T3 mouse fibroblasts were maintained under subconfluent conditions in DMEM (GIBCO/BRL)/10% (vol/vol) FBS/2 mM […]/0.1 mg/ml penicillin-streptomycin, at 37° C. in 5% CO2. For cell treatments, drugs were dissolved in PBS (pH 7.4) and filter-sterilized. Untreated cells received filter-sterilized PBS.
# Cells were washed with PBS, fixed in methanol for 20 min at −20° C., and blocked in PBS, 10% (vol/vol) FBS, and 0.1% (vol/vol) Tween 20 for 30 min at room temperature. Blocked cells were stained with primary antibodies against Nopp140 [1:50 (2)], Sc35 (1:50, Becton Dickinson), and eIF4E (1:50, Transduction Laboratories) in blocking solution for 3 h at room temperature. Upon washing with PBS, cells were stained with secondary antibodies in blocking solution for 30 min. FITC-conjugated donkey anti-rabbit antibody (Jackson ImmunoResearch), Texas red-conjugated donkey anti-mouse antibody, and FITC-conjugated rabbit anti-mouse antibody, as appropriate. […] Fluorescence was observed by using 100× optical magnification and 2× digital zoom using Leica TCS-SP confocal microscope using excitation wavelengths of 488, 568, or 351/364 nm. All channels were detected separately, with no observable crosstalk. […]
# Cells were washed twice with PBS and lysed by slow pipetting in 0.14 M NaCl/10 mM Tris.HCl (pH 8.4)/1.5 mM MgCl2/0.5% (vol/vol) Nonidet P-40/1 mM DTT/100 units/ml RNasin (Promega) at 4° C. […] This yielded intact nuclei, as observed by using light microscopy, with no significant cytoplasmic contamination, as evaluated using tRNA^Lys and β-actin contents. […]
# Protein from whole cells or nuclear and cytoplasmic fractions was extracted by using 0.15 M NaCl/50 mM Tris.HCl (pH 7.4)/1% (vol/vol) Nonidet P-40/0.25% (wt/vol) sodium deoxycholate/1 mM EDTA/1 mM PMSF by incubating for 30 min at 4° C. […] Bound antibodies were chemiluminescently detected by using horseradish peroxidase-conjugated secondary antibodies (Amersham Pharmacia) and SuperSignal West Pico reagent according to manufacturer's instructions (Pierce).
# [3] = test system: Akt; assay: Akt phosphorylation; format: cell-based; conditions: FIGS. 35 and 36
# [4] = test system: cyclin D1 mRNA transport in NIH 3T3 cells; assay: nucleocytoplasmic mRNA transport, fractionation with Northern / quantitative PCR; format: cell-based, mouse
# Protocol: Cells were washed twice with PBS and lysed by slow pipetting in 0.14 M NaCl/10 mM Tris.HCl (pH 8.4)/1.5 mM MgCl2/0.5% (vol/vol) Nonidet P-40/1 mM DTT/100 units/ml RNasin (Promega) at 4° C. Lysed suspensions were centrifuged at 1,000×g for 3 min at 4° C., and the supernatant was saved as the cytoplasmic fraction. Nuclear pellets were resuspended in lysis buffer, and 1/10th volume of 3.3% (wt/vol) sodium deoxycholate and 6.6% (vol/vol) Tween 40 was added under slow vortexing, and incubated at 4° C. for 5 min. Nuclei were sedimented by centrifugation at 1,000×g for 3 min at 4° C., and the supernatant (postnuclear fraction) was added to the cytoplasmic fraction. This yielded intact nuclei, as observed by using light microscopy, with no significant cytoplasmic contamination, as evaluated using tRNA^Lys and β-actin contents. Fractionated cytoplasm was free of nuclear contamination, as indicated by absence of U6 snRNA and Sc35.
# RNA from whole cells or nuclear and cytoplasmic fractions was extracted by using Trizol according to manufacturer's instructions (GIBCO). Isolated RNAs were treated with RNase-free DNase I (Promega) and 5-1 μg aliquots were resolved on 1% formaldehydeagarose gel and transferred to a positively charged nylon membrane (Roche, Nutley, N.J.). Membranes were prehybridized in ULTRAhyb buffer (Ambion) and probed with 20 μM cyclin D1 cDNA probe, 5 μM β-actin cDNA probe, 30 μM biotinylated tRNA^Lys antisense oligo probe, and 30 μM biotinylated U6 small nuclear RNA antisense oligo probe. cDNA probes were biotinylated by using BrightStar psoralen-biotin and observed by using CDP Star chemiluminescence according to the manufacturer's instructions (Ambion). Band intensity and film response were quantified by using NIH IMAGE.
# Cell pellets (500 mg) were homogenized in 1 ml of ice cold lysis buffer (20 mM Hepes/10 mM magnesium acetate/100 mM potassium acetate, pH 7.5) supplemented with protease inhibitors (EDTA-free Complete, Roche) and 400 units/ml of SUPERasine (Ambion), and incubated for 30 min on ice with occasional vortexing. Lysates were sedimented at 3,000×g for 10 min at 4° C. to pellet nuclei and cell debris. Supernatants were sedimented at 12,000×g for 20 min at 4° C. to pellet mitochondria. […] RNA content of fractions was ascertained by using the ratio of absorbance at 260:280 nm. […] RNA from each fraction was quantified by spectrophotometry and 40 ng was converted into cDNA by using the Sensiscript reverse transcription kit (Qiagen, Valencia, Calif.). Quantitative real-time PCR was carried out in triplicate by using the QuantiTect SYBR green real-time PCR Kit (Qiagen) in an Opticon thermal cycler (MJ Research, Waltham, Mass.). […] Obtained real-time PCR profiles were analyzed by using Opticon software (MJ Research).
structure (smiles),measurement,setting,value
"NC(=O)c1ncn([C@@H]2O[C@H](CO)[C@@H](O)[C@H]2O)n1 [Ribavirin, 1-β-D-ribofuranosyl-1,2,4-triazole-3-carboxamide]","mean tumor volume, fold less than untreated control","[1]; 40 ug/kg orally daily, after 20 days, P=0.023",6 fold
same,mean body concentration,[1]; 40 ug/kg orally each day,ca. 1 uM
same,EC50,"[2]; Mus musculus, NIH3T3, NIH 3T3, read-out: EC50 disruption of nuclear eIF4E bodies and cytoplasmic retention of eIF4E",100 to 1000 nM
same,concentration at which disruption of eIF4E nuclear bodies is evident,"[2]; NIH 3T3, 48 h",1 µM
same,concentration at which disruption of eIF4E nuclear bodies is nearly complete,"[2]; NIH 3T3, 48 h",10 µM
same,effect on Akt phosphorylation,[3],inhibits
same,nuclear retention of cyclin D1 mRNA,"[4]; 0.1 μM, quantitative real-time PCR",2 fold
same,EC50,"[4]; Mus musculus, NIH3T3, NIH 3T3, read-out: apparent EC50 inhibition of nucleocytoplasmic cyclin D1 mRNA transport",~1000 nM
same,concentration of nearly complete nuclear retention of cyclin D1 mRNA,[4]; NIH 3T3,100 µM
same,nucleocytoplasmic transport of B-actin and VEGF mRNAs,[4]; at 100 uM,not affected
